Reference: patent US10485235B2, “Aryloxypyrimidinyl ethers as herbicides” (FMC Corporation, priority 2015, dated 2019)

Key:
Format in all cases: in vivo
[1] = tested on: barnyardgrass (Echinochloa crus-galli); assay: Test A preemergence, barnyardgrass; details: Echinochloa crus-galli, pre-emergence, 240 h, Preemergence, 0 to 100 scale (0 no effect, 100 complete control), read-out: Plant response rating, Barnyardgrass; for pest or weed control at 31 g/ha: 31 g ai/ha; for pest or weed control at 125 g/ha: 125 g ai/ha
Outline: (§1)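 Ratings run 0–100, where 100 is complete control, and were scored visually against untreated plants about 10 days after treatment under greenhouse conditions. Formulated chemicals were sprayed either onto the soil surface after seeding (preemergence) or onto one- to two-leaf seedlings 2–10 cm high (postemergence).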

[2] = tested on: ducksalad (Heteranthera limosa); assay: Test B flooded paddy test, ducksalad; details: Heteranthera limosa; 250 g ai/ha, Flood; visual rating after 13 to 15 days; scale 0 to 100, 0 is no effect, 100 is complete control; read-out: Plant response rating, Ducksalad
Outline: (§2)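 Seedlings at the 2-leaf stage are flooded to 3 cm and treated via the paddy water. Greenhouse plants are compared with controls after 13 to 15 days and given a 0 (no effect) to 100 (complete control) rating.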

[3] = tested on: pigweed (Amaranthus retroflexus); assay: Test A postemergence, pigweed; details: Amaranthus retroflexus, post-emergence, 240 h, postemergence, 0 to 100 scale, 0 is no effect, 100 is complete control, approximately 10 days, read-out: Plant response rating, Pigweed; for pest or weed control at 31 g/ha: 31 g ai/ha; for pest or weed control at 125 g/ha: 125 g ai/ha
Outline: as §1

[4] = tested on: kochia (Kochia scoparia); assay: Test A postemergence, kochia; details: Bassia scoparia, post-emergence, 240 h, postemergence, 0 to 100 scale, 0 is no effect, 100 is complete control, approximately 10 days, read-out: Plant response rating, Kochia; for pest or weed control at 31 g/ha: 31 g ai/ha; for pest or weed control at 125 g/ha: 125 g ai/ha
Outline: as §1

[5] = tested on: barnyardgrass (Echinochloa crus-galli); assay: Test B flooded paddy test, barnyardgrass; details: Echinochloa crus-galli; 250 g ai/ha, Flood; visual rating after 13 to 15 days; scale 0 to 100, 0 is no effect, 100 is complete control; read-out: Plant response rating, Barnyardgrass
Outline: as §2

[6] = tested on: corn (Zea mays); assay: Test A postemergence, corn; details: Zea mays, post-emergence, 240 h, postemergence, 0 to 100 scale, 0 is no effect, 100 is complete control, approximately 10 days; for Corn plant response rating (crop injury, 0 = no effect, 100 = complete kill) at 31 g/ha: 31 g ai/ha; for Corn plant response rating (crop injury, 0 = no effect, 100 = complete kill) at 125 g/ha: 125 g ai/ha
Outline: as §1

[7] = tested on: rice (Oryza sativa); assay: Test B flooded paddy test, rice; details: Oryza sativa; 250 g ai/ha, Flood; visual rating after 13 to 15 days; scale 0 to 100, 0 is no effect, 100 is complete control; read-out: Plant response rating, Rice
Outline: as §2

[8] = tested on: galium (catchweed bedstraw, Galium aparine); assay: Test A postemergence, galium; details: Galium, post-emergence, 240 h, postemergence, 0 to 100 scale, 0 is no effect, 100 is complete control, approximately 10 days, read-out: Plant response rating, Galium; for pest or weed control at 31 g/ha: 31 g ai/ha; for pest or weed control at 125 g/ha: 125 g ai/ha
Outline: as §1

[9] = tested on: foxtail, giant (giant foxtail, Setaria faberii); assay: Test A postemergence, giant foxtail; details: Setaria faberi, post-emergence, 240 h, postemergence, 0 to 100 scale, 0 is no effect, 100 is complete control, approximately 10 days, read-out: Plant response rating, Foxtail, Giant; for pest or weed control at 31 g/ha: 31 g ai/ha; for pest or weed control at 125 g/ha: 125 g ai/ha
Outline: as §1

[10] = tested on: sedge, umbrella (small-flower umbrella sedge, Cyperus difformis); assay: Test B flooded paddy test, umbrella sedge; details: Cyperus difformis; 250 g ai/ha, Flood; visual rating after 13 to 15 days; scale 0 to 100, 0 is no effect, 100 is complete control; read-out: Plant response rating, Sedge, Umbrella
Outline: as §2

[11] = tested on: ragweed (common ragweed, Ambrosia elatior); assay: Test A preemergence, ragweed; details: Ambrosia artemisiifolia, pre-emergence, 240 h, Preemergence, 0 to 100 scale (0 no effect, 100 complete control), read-out: Plant response rating, Ragweed; for pest or weed control at 31 g/ha: 31 g ai/ha; for pest or weed control at 125 g/ha: 125 g ai/ha
Outline: as §1

[12] = tested on: foxtail, giant (giant foxtail, Setaria faberii); assay: Test A preemergence, giant foxtail; details: Setaria faberi, pre-emergence, 240 h, Preemergence, 0 to 100 scale (0 no effect, 100 complete control), read-out: Plant response rating, Foxtail, Giant; for pest or weed control at 31 g/ha: 31 g ai/ha; for pest or weed control at 125 g/ha: 125 g ai/ha
Outline: as §1

[13] = tested on: kochia (Kochia scoparia); assay: Test A preemergence, kochia; details: Bassia scoparia, pre-emergence, 240 h, Preemergence, 0 to 100 scale (0 no effect, 100 complete control), read-out: Plant response rating, Kochia; for pest or weed control at 31 g/ha: 31 g ai/ha; for pest or weed control at 125 g/ha: 125 g ai/ha
Outline: as §1

[14] = tested on: wheat (Triticum aestivum); assay: Test A postemergence, wheat; details: Triticum aestivum, post-emergence, 240 h, postemergence, 0 to 100 scale, 0 is no effect, 100 is complete control, approximately 10 days, read-out: Plant response rating, Wheat; for plant injury at 31 g/ha: 31 g ai/ha; for plant injury at 125 g/ha: 125 g ai/ha
Outline: as §1

[15] = tested on: pigweed (Amaranthus retroflexus); assay: Test A preemergence, pigweed; details: Amaranthus retroflexus, pre-emergence, 240 h, Preemergence, 0 to 100 scale (0 no effect, 100 complete control), read-out: Plant response rating, Pigweed; for pest or weed control at 31 g/ha: 31 g ai/ha; for pest or weed control at 125 g/ha: 125 g ai/ha
Outline: as §1

## N#Cc1cccc(Oc2ncc(Cl)cn2)c1OCCCC(F)(F)F [Compound 5, 3-[(5-chloro-2-pyrimidinyl)oxy]-2-(4,4,4-trifluorobutoxy)benzonitrile]
[1]
  pest or weed control at 31 g/ha: 80%
  pest or weed control at 125 g/ha: 100%
[2]
  pest or weed control at 250 g/ha: 90%
[3]
  pest or weed control at 31 g/ha: 100%
  pest or weed control at 125 g/ha: 100%
[4]
  pest or weed control at 31 g/ha: 100%
  pest or weed control at 125 g/ha: 100%
[5]
  pest or weed control at 250 g/ha: 50%
[6]
  Corn plant response rating (crop injury, 0 = no effect, 100 = complete kill) at 31 g/ha: 50%
  Corn plant response rating (crop injury, 0 = no effect, 100 = complete kill) at 125 g/ha: 80%
[7]
  plant injury at 250 g/ha: 40%
[8]
  pest or weed control at 31 g/ha: 80%
  pest or weed control at 125 g/ha: 100%
[9]
  pest or weed control at 31 g/ha: 60%
  pest or weed control at 125 g/ha: 100%
[10]
  pest or weed control at 250 g/ha: 95%
[11]
  pest or weed control at 31 g/ha: 10%
  pest or weed control at 125 g/ha: 10%
[12]
  pest or weed control at 31 g/ha: 100%
  pest or weed control at 125 g/ha: 100%
[13]
  pest or weed control at 31 g/ha: 90%
  pest or weed control at 125 g/ha: 100%
[14]
  plant injury at 31 g/ha: 20%
  plant injury at 125 g/ha: 40%
[15]
  pest or weed control at 31 g/ha: 90%
  pest or weed control at 125 g/ha: 90%

## FC(F)(F)COc1c(Cl)cccc1Oc1ncc(Cl)cn1 [Compound 42]
[1]
  pest or weed control at 31 g/ha: 0%
  pest or weed control at 125 g/ha: 10%
[2]
  pest or weed control at 250 g/ha: 70%
[3]
  pest or weed control at 31 g/ha: 20%
  pest or weed control at 125 g/ha: 60%
[4]
  pest or weed control at 31 g/ha: 0%
  pest or weed control at 125 g/ha: 10%
[5]
  pest or weed control at 250 g/ha: 0%
[6]
  Corn plant response rating (crop injury, 0 = no effect, 100 = complete kill) at 31 g/ha: 0%
  Corn plant response rating (crop injury, 0 = no effect, 100 = complete kill) at 125 g/ha: 10%
[7]
  plant injury at 250 g/ha: 0%
[8]
  pest or weed control at 31 g/ha: 0%
  pest or weed control at 125 g/ha: 20%
[9]
  pest or weed control at 31 g/ha: 0%
  pest or weed control at 125 g/ha: 10%
[10]
  pest or weed control at 250 g/ha: 60%
[11]
  pest or weed control at 31 g/ha: 0%
  pest or weed control at 125 g/ha: 0%
[12]
  pest or weed control at 31 g/ha: 0%
  pest or weed control at 125 g/ha: 10%
[13]
  pest or weed control at 31 g/ha: 0%
  pest or weed control at 125 g/ha: 10%
[14]
  plant injury at 31 g/ha: 0%
  plant injury at 125 g/ha: 0%
[15]
  pest or weed control at 31 g/ha: 0%
  pest or weed control at 125 g/ha: 60%

## N#Cc1cccc(Oc2ncc(Cl)cn2)c1OC/C=C/C(F)(F)F [Compound 8, 3-[(5-chloro-2-pyrimidinyl)oxy]-2-[[(2E)-4,4,4-trifluoro-2-buten-1-yl]oxy]benzonitrile]
[1]
  pest or weed control at 31 g/ha: 30%
  pest or weed control at 125 g/ha: 100%
[2]
  pest or weed control at 250 g/ha: 75%
[3]
  pest or weed control at 31 g/ha: 90%
  pest or weed control at 125 g/ha: 100%
[4]
  pest or weed control at 31 g/ha: 80%
  pest or weed control at 125 g/ha: 100%
[5]
  pest or weed control at 250 g/ha: 0%
[6]
  Corn plant response rating (crop injury, 0 = no effect, 100 = complete kill) at 31 g/ha: 10%
  Corn plant response rating (crop injury, 0 = no effect, 100 = complete kill) at 125 g/ha: 20%
[7]
  plant injury at 250 g/ha: 0%
[8]
  pest or weed control at 31 g/ha: 40%
  pest or weed control at 125 g/ha: 90%
[9]
  pest or weed control at 31 g/ha: 20%
  pest or weed control at 125 g/ha: 90%
[10]
  pest or weed control at 250 g/ha: 100%
[11]
  pest or weed control at 31 g/ha: 0%
  pest or weed control at 125 g/ha: 0%
[12]
  pest or weed control at 31 g/ha: 100%
  pest or weed control at 125 g/ha: 100%
[13]
  pest or weed control at 31 g/ha: 20%
  pest or weed control at 125 g/ha: 100%
[14]
  plant injury at 31 g/ha: 0%
  plant injury at 125 g/ha: 10%
[15]
  pest or weed control at 31 g/ha: 100%
  pest or weed control at 125 g/ha: 100%
